Results published in patent US20100013377A1, “Compounds for use in Opto-Electrical Devices” (CDT OXFORD LIMITED, priority 2006, published 2010).

Conditions: in all of xylene, toluene, chlorobenzene, chloroform or tetrahydrofuran
Text: By “solubilizing substituent” we mean a substituent which renders the triazine sufficiently soluble in organic solvents that it can be solution processed to fabricate an opto-electrical device by, for example, ink-jet printing or spin-coating. […] Organic solvents suitable for opto-electrical device fabrication include xylene, toluene, chlorobenzene, chloroform or tetrahydrofuran but preferably toluene or xylene.

Compound: c1ccc(-c2ccc(-c3nc(-c4ccc(-c5ccccc5)cc4)nc(-c4ccc(-c5ccccc5)cc4)n3)cc2)cc1 [2,4,6-tris(biphenyl)-1,3,5-triazine]
- solubility: < 5000 µg/mL
